Data on eight molecules can be found in ChEMBL document CHEMBL2331241, “Synthesis of C-cinnamoyl glycosides and their inhibitory activity against mammalian carbonic anhydrases” (Bioorg Med Chem, 2013).

For assay [1], the target named is Carbonic anhydrase 9 (Homo sapiens, UniProt Q16790). The assay is described as follows: Inhibition of human carbonic anhydrase 9 preincubated for 15 mins by CO2 hydration stopped-flow assay.
The target in assay [2] is Carbonic anhydrase 3 (Homo sapiens, UniProt P07451). The assay is described as follows: Inhibition of human carbonic anhydrase 3 preincubated for 15 mins by CO2 hydration stopped-flow assay.
The target in assay [3] is Carbonic anhydrase 5B, mitochondrial (Homo sapiens, UniProt Q9Y2D0).
Description: Inhibition of human carbonic anhydrase 5B preincubated for 15 mins by CO2 hydration stopped-flow assay
The target in assay [4] is Carbonic anhydrase 6 (Homo sapiens, UniProt P23280). Nature of the assay: Inhibition of human carbonic anhydrase 6 preincubated for 15 mins by CO2 hydration stopped-flow assay.

By Ki is commonly meant a dissociation constant, usually derived from enzyme kinetics or from competition with a known ligand. High values mean lower affinity, low ones higher affinity.

Carbonic anhydrase 3, sequence (P07451 whole entry): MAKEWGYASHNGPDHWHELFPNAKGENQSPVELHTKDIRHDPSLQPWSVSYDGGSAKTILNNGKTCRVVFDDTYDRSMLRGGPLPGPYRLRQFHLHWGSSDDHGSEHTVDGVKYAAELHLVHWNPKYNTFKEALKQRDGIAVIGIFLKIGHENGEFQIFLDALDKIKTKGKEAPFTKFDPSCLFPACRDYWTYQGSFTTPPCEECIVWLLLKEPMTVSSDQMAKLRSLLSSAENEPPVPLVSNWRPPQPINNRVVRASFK
Carbonic anhydrase 5B, mitochondrial, sequence (Q9Y2D0 whole entry): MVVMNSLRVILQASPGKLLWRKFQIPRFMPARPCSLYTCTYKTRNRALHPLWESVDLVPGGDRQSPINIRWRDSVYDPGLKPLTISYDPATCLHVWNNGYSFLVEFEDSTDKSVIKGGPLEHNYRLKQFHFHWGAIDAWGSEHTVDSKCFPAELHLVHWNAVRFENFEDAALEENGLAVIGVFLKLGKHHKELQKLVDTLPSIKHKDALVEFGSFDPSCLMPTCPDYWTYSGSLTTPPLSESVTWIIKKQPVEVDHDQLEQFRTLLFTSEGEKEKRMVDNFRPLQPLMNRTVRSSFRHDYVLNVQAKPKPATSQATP
Carbonic anhydrase 6, sequence (P23280 whole entry): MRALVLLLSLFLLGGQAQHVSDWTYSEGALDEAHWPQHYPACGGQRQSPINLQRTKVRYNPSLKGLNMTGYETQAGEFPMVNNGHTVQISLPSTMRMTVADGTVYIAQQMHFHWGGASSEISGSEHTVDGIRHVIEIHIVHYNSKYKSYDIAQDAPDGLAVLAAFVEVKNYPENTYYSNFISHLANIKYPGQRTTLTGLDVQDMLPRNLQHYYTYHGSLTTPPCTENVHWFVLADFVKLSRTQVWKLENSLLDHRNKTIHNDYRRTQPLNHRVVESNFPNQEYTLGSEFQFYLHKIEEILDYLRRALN

Consider `CC(=O)OC[C@H]1O[C@@H](CC(=O)/C=C/c2cccc(O)c2)[C@H](OC(C)=O)[C@@H](OC(C)=O)[C@@H]1OC(C)=O`, for which the figures for the inhibition constant (Ki) in assay [1] and in assay [2] were 5.2 µM and over 100 µM, respectively.
Consider `CC(=O)OC[C@H]1O[C@@H](CC(=O)/C=C/c2ccc(O)cc2)[C@H](OC(C)=O)[C@@H](OC(C)=O)[C@@H]1OC(C)=O`, for which the Ki in assay [1] was 5.9 µM; in assay [2], over 100 µM.
The matching figures for `CC(=O)OC[C@H]1O[C@@H](CC(=O)/C=C/c2cccc(O)c2)[C@H](OC(C)=O)[C@@H](OC(C)=O)[C@H]1OC(C)=O`: 3.3 µM and over 100 µM.
Regarding `CC(=O)OC[C@H]1O[C@@H](CC(=O)/C=C/c2ccc(O)cc2)[C@H](OC(C)=O)[C@@H](OC(C)=O)[C@H]1OC(C)=O`, the Ki in assay [1] is 2.9 µM; in assay [2], over 100 µM.
As to `O=C(/C=C/c1cccc(O)c1)C[C@@H]1O[C@H](CO)[C@@H](O)[C@H](O)[C@H]1O`, the values for the Ki in assay [3], in assay [1] and in assay [2] were over 100 µM, 4.5 µM and over 100 µM, respectively.
As to `O=C(/C=C/c1cccc(O)c1)C[C@@H]1O[C@H](CO)[C@H](O)[C@H](O)[C@H]1O`, the Ki in assay [3] was over 100 µM; in assay [1], 9.2 µM; in assay [2] it was over 100 µM.
For the molecule `O=C(/C=C/c1ccc(O)cc1)C[C@@H]1O[C@H](CO)[C@H](O)[C@H](O)[C@H]1O`, the Ki in assay [4] was over 100 µM; in assay [3], over 100 µM; in assay [1], 8.2 µM; in assay [2] it was 8.4 µM.
For the molecule `O=C(/C=C/c1ccc(O)cc1)C[C@@H]1O[C@H](CO)[C@@H](O)[C@H](O)[C@H]1O`, the Ki in assay [4] is over 100 µM; in assay [3], over 100 µM; in assay [1] it was 8.2 µM; in assay [2], over 100 µM.
